The text below walks through data of patent US8999957B2, “Heterocyclic compounds as ERK inhibitors” (Merck Sharp & Dohme Corp., priority 2010, dated 2015).

Several values for one entry are separate records, joined by “and”; a condition that tells them apart may be missing. Equal values may be shown once.

In one test the target is ERK protein (Mus musculus, UniProt P63085). Description: TdF (Temperature Dependence Fluorescence, thermal shift) assay for ERK. As to conditions: 3 μM ERK protein, uncertainty estimated ±50%, read-out: Kd TdF. Type of test: binding. The text has this: Assays: TdF Assay for ERK […] The TdF assay was mainly conducted in the 96-well based CHROMO-4 real time fluorescence plate reader (BioRad). The Sypro Orange (Sigma-Aldrich), environmentally sensitive fluorescence dye, was used to monitor the protein folding-unfolding transition. Protein-ligand binding was gauged by the change (or shift) in the unfolding transition temperature (ΔTm) acquired at protein alone with respect to protein in the presence of ligand of interest. Compound of interest was first prepared in DMSO stock (typical concentration: 10 mM). […] Final percentage of DMSO resided in the sample was 2%. The sample plate was heated from 30° C. to 90° C. with thermal ramping rate of 1° C./min. […] The instrument thermal stability was ±0.2° C. The melting temperatures (Tm) for ERK protein under aforementioned conditions occurred at 61.0±0.2° C. and 64.8±02° C. respectively. Theoretical Basis for TdF-Based Ligand Binding Affinity Constant […] In brief, the binding constant of the ligand at the Tm is expressed as below: [formula] where T0 is the midpoint of unfolding for unliganded protein and Tm is the midpoint of unfolding in presence of ligand. [LTm] is free ligand at Tm. The ΔHu and ΔCpu are the enthalpy of unfolding and heat capacity change of unfolding for the protein respectively. Following algorithm derived by Winsor and coworker, the T0, ΔHu and ΔCpu can be determined separately from nonlinear regression fitting the protein alone melting curve: Where F(T) is the observed fluorescence intensity at any temperature T, Yn and Yu are the predicted fluorescence intensities for fully folded and unfolded protein, respectively; mn and mu are slope correction for changes in Yn and Yu with respect to changes in temperature (analogously replace T0 with Tm in the above equation for liganded protein to yield Tm). […] [formula] where ΔHL (T) is the van't Hoff enthalpy of ligand binding at temperature T and ΔCpL is the heat capacity upon ligand binding. For simplicity, the ΔCpL and ΔHL (T) were set to zero and −7 kcal/mol respectively.
Sequence of ERK protein (P63085 2-358 limits assumed): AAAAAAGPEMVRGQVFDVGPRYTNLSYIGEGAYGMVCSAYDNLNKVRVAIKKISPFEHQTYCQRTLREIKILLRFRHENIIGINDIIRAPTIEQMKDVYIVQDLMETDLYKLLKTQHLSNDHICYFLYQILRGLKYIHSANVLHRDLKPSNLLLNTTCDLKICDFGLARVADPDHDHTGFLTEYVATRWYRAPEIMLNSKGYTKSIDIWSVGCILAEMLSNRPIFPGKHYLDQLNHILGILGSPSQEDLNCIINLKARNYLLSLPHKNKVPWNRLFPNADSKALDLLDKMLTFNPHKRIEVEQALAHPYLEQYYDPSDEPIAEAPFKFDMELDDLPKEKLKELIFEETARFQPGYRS

In test [1] the target is fully phosphorylated, active Mouse ERK2 protein (Mus musculus (Mouse), UniProt P63085). Description: Active ERK2 (aERK) IMAP assay, condition 1. Type of test: biochemical. As to conditions: aERK assay condition 1, 30 μM ATP. The protocol:
Active ERK2 (aERK) Assay: (Unless Indicated Otherwise, the Data Provided for aERK was obtained using Condition 1)
Activated ERK2 activity was also determined in the IMAP assay format using the procedure outlined above. […] Reactions proceeded for 30 minutes before termination by addition of 60 μl IMAP detection beads in binding buffer. Plates were read as above after 30 minute binding equilibration.

Test [2] concerns the target fully phosphorylated, mouse aERK2 enzyme (Mus musculus (Mouse), UniProt P63085). The test is described as follows: Active ERK2 (aERK) IMAP-FP assay, condition 2. Type of test: biochemical. As to conditions: active ERK2; read-out: aErk2 Ic50. An outline of the steps: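 Phosphorylation by fully phosphorylated mouse ERK2 ran 40-45 min, then quenched with IMAP beads (1:1000) in binding buffer; fluorescence polarization read after 30 min binding equilibration.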

Sequence of fully phosphorylated, mouse aERK2 enzyme (P63085 whole entry): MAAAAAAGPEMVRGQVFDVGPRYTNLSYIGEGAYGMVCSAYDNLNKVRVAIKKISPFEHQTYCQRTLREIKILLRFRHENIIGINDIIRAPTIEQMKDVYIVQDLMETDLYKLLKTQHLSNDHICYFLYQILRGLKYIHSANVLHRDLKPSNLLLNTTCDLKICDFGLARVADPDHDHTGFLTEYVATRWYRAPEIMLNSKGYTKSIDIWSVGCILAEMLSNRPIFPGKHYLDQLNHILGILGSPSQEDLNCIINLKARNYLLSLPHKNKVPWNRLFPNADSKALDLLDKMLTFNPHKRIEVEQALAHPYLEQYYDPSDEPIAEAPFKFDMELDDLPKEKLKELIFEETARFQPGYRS
Sequence of fully phosphorylated, active Mouse ERK2 protein (P63085 whole entry): as above

The term Kd denotes the equilibrium constant for the complex coming apart. For the compound `O=C(NC1CNCCC1c1cccc(F)c1)c1ccc2[nH]nc(-c3ccncc3)c2c1` (stereo not shown), the Kd at ERK protein is 106 nM.

Regarding `O=C(NC1CCCCNC1=O)c1ccc2[nH]nc(-c3ccncc3)c2c1` (stereo not shown), the Kd on ERK protein was 73 nM.

`O=C(NC1CN(C(=O)OCc2ccccc2)CCNC1=O)c1ccc2[nH]nc(-c3ccncc3)c2c1` (stereo not shown): the Kd on ERK protein is 290 nM.

As for `O=C(Nc1ccc2[nH]nc(-c3ccncc3)c2c1)C1CNCC(c2ccccc2)C1` (stereo not shown), the Kd at ERK protein was 8 nM.

Take `O=C(NC1CNCC(c2ccccc2)C1)c1ccc2[nH]nc(-c3ccncc3)c2c1` (stereo not shown): the Kd at ERK protein is 0.8 nM.

In general, IC50 refers to the point on the concentration scale where inhibition reaches its midpoint. Consider `O=C(N[C@@H]1CCCN(Cc2ccccn2)C1)c1ccc2[nH]nc(-c3ccc4c(c3)CCO4)c2c1`, for which, at ERK protein, the Kd was 9.2 nM. Also, half-maximal inhibition in test [1] (IC50) was put at 591 nM.

Take `N#Cc1ccc(CN2CCC[C@@H](NC(=O)c3ccc4[nH]nc(-c5ccc6c(c5)CCO6)c4c3)C2)cc1`: the Kd on ERK protein is 82 nM. Moreover, the IC50 in test [1] came out at 1000 nM.

As to `O=C(N[C@@H]1CCCN(Cc2ccncc2)C1)c1ccc2[nH]nc(-c3ccc4c(c3)CCO4)c2c1`, the Kd at ERK protein is 76 nM. In test [1], this compound had an IC50 of 626 nM.

On to `O=C(N[C@@H]1CCCN(Cc2nccs2)C1)c1ccc2[nH]nc(-c3ccc4c(c3)CCO4)c2c1`, for which the Kd at ERK protein is 10.5 nM. This compound also displayed an IC50 in test [1] of 251 nM.

For `CN(C)c1ccc(CN2CCC[C@@H](NC(=O)c3ccc4[nH]nc(-c5ccc6c(c5)CCO6)c4c3)C2)cc1`, at ERK protein, the Kd was 1000 nM. In addition, in test [1], the IC50 worked out at 1000 nM.

With `CCc1cc(-c2n[nH]c3ccc(C(=O)N[C@@H]4CCCN(Cc5ccccc5F)C4)cc23)ccn1`, at ERK protein, the Kd was 0.4 nM. The midpoint of inhibition in test [1], the IC50, lay at 19.8 nM.

As for `COc1cccc(F)c1CN1C[C@H](C)C[C@@H](NC(=O)c2ccc3[nH]nc(-c4ccc5nn(C)cc5c4)c3c2)C1`, on ERK protein, the Kd was 0.39 nM. 217 nM corresponded to half-maximal inhibition in test [1] (IC50).

For the compound `COc1cccc(F)c1CN1CC(NC(=O)c2ccc3[nH]nc(-c4ccnc(C)c4)c3c2)CC(OC)C1` (stereo not shown), on ERK protein, the Kd is 0.42 nM. In test [1], the IC50 was 39.1 nM.

As for `COc1cccc(F)c1CN1CCC[C@@H](NC(=O)c2ccc3[nH]nc(-c4ccc5nc(C)sc5c4)c3c2)C1`, the Kd on ERK protein was 0.1 nM. This compound displayed an IC50 in test [1] of 78.5 nM.

For the compound `COc1cccc(F)c1CN1C[C@@H](NC(=O)c2ccc3[nH]nc(-c4ccnc(C)c4)c3c2)CCC1=O`, at ERK protein, the Kd was 4.12 nM. The compound further had an IC50 in test [1] of 992 nM.

For the compound `COc1cccc(F)c1CN1C[C@@H](NC(=O)c2ccc3[nH]nc(-c4ccc5nccn5c4)c3c2)CCC1=O`, the Kd at ERK protein is 17.7 nM. This compound also had an IC50 in test [1] of 663 nM.

`[2H]C(c1c(F)cccc1OC)N1CCC[C@@H](NC(=O)c2ccc3[nH]nc(-c4ccnc(C)c4)c3c2)C1` (stereo partly shown): the Kd on ERK protein is 0.35 nM. The IC50 in test [1] came out at 13.3 nM.

In the case of `COC(=O)C1CC(NC(=O)c2ccc3[nH]nc(-c4ccnc(C)c4)c3c2)CN(Cc2c(F)cccc2OC)C1` (stereo not shown), the Kd at ERK protein is 3.79 nM. Half-maximal inhibition in test [1] (IC50) required 146 nM.

Take `Cc1cc(-c2n[nH]c3ccc(C(=O)N[C@@H]4CCCN(Cc5ncccc5F)C4)cc23)ccn1`: the Kd at ERK protein was 1.89 nM. The same compound came in with an IC50 in test [1] of 234 nM.

As for `Cc1cc(-c2n[nH]c3ccc(C(=O)N[C@@H]4CCCN(Cc5scnc5C)C4)cc23)ccn1`, at ERK protein, the dissociation constant (Kd) was 20.3 nM. Further, in test [1], the IC50 is 875 nM.

Take `CCCN(C)C(=O)[C@@H]1CC[C@@H](NC(=O)c2ccc3[nH]nc(-c4ccnc(C)c4)c3c2)CN1Cc1c(F)cccc1OC` [N-{(3R,6S)-1-(2-fluoro-6-methoxybenzyl)-6-[methyl(propyl)carbamoyl]piperidin-3-yl}-3-(2-methylpyridin-4-yl)-1H-indazole-5-carboxamide]: the IC50 in test [2] is 57 nM.

Consider `COc1cccc(F)c1CN1C[C@H](NC(=O)c2ccc3[nH]nc(-c4ccnc(C)c4)c3c2)CC[C@H]1C(=O)N1CCN(C(=O)OC2CCCC2)CC1` [cyclopentyl 4-{[(2S,5R)-1-(2-fluoro-6-methoxybenzyl)-5-({[3-(2-methylpyridin-4-yl)-1H-indazol-5-yl]carbonyl}amino)piperidin-2-yl]carbonyl}piperazine-1-carboxylate], for which the IC50 in test [2] was determined as 31 nM.

For `CN1CC(NC(=O)c2ccc3[nH]nc(-c4ccncc4)c3c2)CC(c2ccccc2)C1` (stereo not shown) [drawing 219], the Kd at ERK protein was 1.4 nM.

Take `CCOC(=O)N1CCN(C(=O)[C@@H]2CC[C@@H](NC(=O)c3ccc4[nH]nc(-c5ccnc(C)c5)c4c3)CN2Cc2c(F)cccc2OC)CC1` [ethyl 4-{[(2S,5R)-1-(2-fluoro-6-methoxy-benzyl)-5-({[3-(2-methylpyridin-4-yl)-1H-indazol-5-yl]carbonyl}amino)piperidin-2-yl]carbonyl}piperazine-1-carboxylate]: the IC50 in test [2] turned out to be 20.5 nM.

Turning to `COC(=O)N1CCN(C(=O)[C@@H]2CC[C@@H](NC(=O)c3ccc4[nH]nc(-c5ccnc(C)c5)c4c3)CN2Cc2c(F)cccc2OC)CC1` [methyl 4-{[(2S,5R)-1-(2-fluoro-6-methoxy-benzyl)-5-({[3-(2-methylpyridin-4-yl)-1H-indazol-5-yl]carbonyl}amino)piperidin-2-yl]carbonyl}piperazine-1-carboxylate], the IC50 in test [2] was 17.9 nM.

Take `COc1cccc(F)c1CN1C[C@H](NC(=O)c2ccc3[nH]nc(-c4ccnc(C)c4)c3c2)CC[C@H]1C(=O)N1CCN(C(=O)OC(C)(C)C)CC1` [tert-butyl 4-{[(2S,5R)-1-(2-fluoro-6-methoxy-benzyl)-5-({[3-(2-methylpyridin-4-yl)-1H-indazol-5-yl]carbonyl}amino)piperidin-2-yl]carbonyl}piperazine-1-carboxylate]: in test [2], the IC50 worked out at 7 nM.

For the compound `COc1cccc(F)c1CN1C[C@H](NC(=O)c2ccc3[nH]nc(-c4ccnc(C)c4)c3c2)CC[C@H]1C(=O)NCCNC(=O)OC(C)(C)C` [tert-butyl [2-({[(2S,5R)-1-(2-fluoro-6-methoxybenzyl)-5-({[3-(2-methylpyridin-4-yl)-1H-indazol-5-yl]carbonyl}amino)piperidin-2-yl]carbonyl}amino)ethyl]carbamate], the IC50 in test [2] was determined as 18.9 nM.

In the case of `COc1cccc(F)c1CN1C[C@H](NC(=O)c2ccc3[nH]nc(-c4ccnc(C)c4)c3c2)CC[C@H]1C(=O)NCCCNC(=O)OC(C)(C)C` [tert-butyl [3-({[(2S,5R)-1-(2-fluoro-6-methoxybenzyl)-5-({[3-(2-methylpyridin-4-yl)-1H-indazol-5-yl]carbonyl}amino)piperidin-2-yl]carbonyl}amino)propyl]carbamate], the IC50 in test [2] is 16.9 nM.

As to `COc1cccc(F)c1CN1C[C@H](NC(=O)c2ccc3[nH]nc(-c4ccnc(C)c4)c3c2)CC[C@H]1C(=O)N(C)CCCCNC(=O)OC(C)(C)C` [tert-butyl {4-[{[(2S,5R)-1-(2-fluoro-6-methoxybenzyl)-5-({[3-(2-methylpyridin-4-yl)-1H-indazol-5-yl]carbonyl}amino)piperidin-2-yl]carbonyl}(methyl)amino]butyl}carbamate], the IC50 in test [2] was found to be 90.3 nM.

For the compound `COc1cccc(F)c1CN1C[C@H](NC(=O)c2ccc3[nH]nc(-c4ccnc(C)c4)c3c2)CC[C@H]1C(=O)N1CCN(C(=O)OC2CCOCC2)CC1` [tetrahydro-2H-pyran-4-yl 4-{[(2S,5R)-1-(2-fluoro-6-methoxybenzyl)-5-({[3-(2-methylpyridin-4-yl)-1H-indazol-5-yl]carbonyl}amino)piperidin-2-yl]carbonyl}piperazine-1-carboxylate], the IC50 in test [2] amounted to 18.8 nM.

With “N-{(3R,6S)-1-(2-fluoro-6-methoxybenzyl)-6- [(2-methylhydrazino)carbonyl]piperidin-3- yl}-3-(2-methylpyridin-4-yl)-1H-indazole-5- carboxamide”, the IC50 in test [2] is 20.2 nM and 30 nM.
